Our source for the Ki values is BindingDB's records for doi:10.1111/j.1432-1033.1992.tb17043.x (Universit&Eacute, 1992).

Non-standard residues stand in square brackets, D forms with d. Residues, ends and D or L forms follow the SMILES beside them. ξ: configuration not given here. Ile(3ξ) = CCC(C)[C@H](N)C(=O)O

The assay has as its target T1, Pituitary adenylate cyclase-activating polypeptide (Homo sapiens, UniProt P18509).
T1 sequence (P18509 whole entry): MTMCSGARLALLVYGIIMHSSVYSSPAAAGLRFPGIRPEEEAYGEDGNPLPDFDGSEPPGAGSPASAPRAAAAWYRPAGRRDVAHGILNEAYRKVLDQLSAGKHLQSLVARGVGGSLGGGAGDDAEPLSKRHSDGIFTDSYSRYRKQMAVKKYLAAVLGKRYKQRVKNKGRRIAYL
Consider `CCC(C)[C@H](NC(=O)CNC(=O)[C@H](CC(=O)O)NC(=O)[C@@H](Cc1ccccc1)NC(=O)[C@H](Cc1cnc[nH]1)NC(C)=O)C(=O)N[C@@H](Cc1ccccc1)C(=O)N[C@H](C(=O)N[C@@H](CC(=O)O)C(=O)N[C@@H](CO)C(=O)N[C@@H](Cc1ccc(O)cc1)C(=O)N[C@@H](CO)C(=O)N[C@@H](CCCN=C(N)N)C(=O)N[C@@H](Cc1ccc(O)cc1)C(=O)N[C@@H](CCCN=C(N)N)C(=O)N[C@@H](CCCCN)C(=O)N[C@@H](CCC(N)=O)C(=O)N[C@@H](CCSC)C(=O)N[C@@H](C)C(=O)N[C@H](C(=O)N[C@@H](CCCCN)C(=O)N[C@@H](CCCCN)C(=O)N[C@@H](Cc1ccc(O)cc1)C(=O)N[C@@H](CC(C)C)C(=O)N[C@@H](C)C(=O)N[C@@H](C)C(=O)N[C@H](C(=O)N[C@@H](CC(C)C)C(N)=O)C(C)C)C(C)C)[C@@H](C)O` (stereo partly drawn) [[AcHis1,DPhe2]PACAP(1-27)], for which the Ki worked out at 1000 nM. For the compound `CCC(C)[C@H](N)C(=O)N[C@@H](Cc1ccccc1)C(=O)N[C@H](C(=O)N[C@@H](CC(=O)O)C(=O)N[C@@H](CO)C(=O)N[C@@H](Cc1ccc(O)cc1)C(=O)N[C@@H](CO)C(=O)N[C@@H](CCCN=C(N)N)C(=O)N[C@@H](Cc1ccc(O)cc1)C(=O)N[C@@H](CCCN=C(N)N)C(=O)N[C@@H](CCCCN)C(=O)N[C@@H](CCC(N)=O)C(=O)N[C@@H](CCSC)C(=O)N[C@@H](C)C(=O)N[C@H](C(=O)N[C@@H](CCCCN)C(=O)N[C@@H](CCCCN)C(=O)N[C@@H](Cc1ccc(O)cc1)C(=O)N[C@@H](CC(C)C)C(=O)N[C@@H](C)C(=O)N[C@@H](C)C(=O)N[C@H](C(=O)N[C@@H](CC(C)C)C(N)=O)C(C)C)C(C)C)[C@@H](C)O` (stereo partly drawn) [PACAP(5-27)] (H-[Ile(3ξ)]FTDSYSRYRKQMAVKKYLAAVL-NH2), the Ki turned out to be 150 nM. The value for `CC[C@H](C)[C@H](NC(=O)CNC(=O)[C@H](CC(N)=O)NC(=O)[C@H](CO)NC(=O)[C@@H](N)Cc1cnc[nH]1)C(=O)N[C@@H](Cc1ccccc1)C(=O)N[C@H](C(=O)N[C@@H](CC(=O)O)C(=O)N[C@@H](CO)C(=O)N[C@@H](Cc1ccc(O)cc1)C(=O)N[C@@H](CO)C(=O)N[C@@H](CCCNC(=N)N)C(=O)N[C@@H](Cc1ccc(O)cc1)C(=O)N[C@@H](CCCNC(=N)N)C(=O)N[C@@H](CCCCN)C(=O)N[C@@H](CCC(N)=O)C(=O)N[C@@H](CCSC)C(=O)N[C@@H](C)C(=O)N[C@H](C(=O)N[C@@H](CCCCN)C(=O)N[C@@H](CCCCN)C(=O)N[C@@H](Cc1ccc(O)cc1)C(=O)N[C@@H](CC(C)C)C(=O)N[C@@H](C)C(=O)N[C@@H](C)C(=O)N[C@H](C(=O)N[C@@H](CC(C)C)C(N)=O)C(C)C)C(C)C)[C@@H](C)O` [[Asn3]PACAP(1-27)] was 200 nM; that for `CCC(C)[C@H](NC(=O)CNC(=O)[C@H](CC(=O)O)NC(=O)[C@@H](Cc1ccccc1)NC(=O)[C@@H](N)Cc1cnc[nH]1)C(=O)N[C@@H](Cc1ccccc1)C(=O)N[C@H](C(=O)N[C@@H](CC(=O)O)C(=O)N[C@@H](CO)C(=O)N[C@@H](Cc1ccc(O)cc1)C(=O)N[C@@H](CO)C(=O)N[C@@H](CCCN=C(N)N)C(=O)N[C@@H](Cc1ccc(O)cc1)C(=O)N[C@@H](CCCN=C(N)N)C(=O)N[C@@H](CCCCN)C(=O)N[C@@H](CCC(N)=O)C(=O)N[C@@H](CCSC)C(=O)N[C@@H](C)C(=O)N[C@H](C(=O)N[C@@H](CCCCN)C(=O)N[C@@H](CCCCN)C(=O)N[C@@H](Cc1ccc(O)cc1)C(=O)N[C@@H](CC(C)C)C(=O)N[C@@H](C)C(=O)N[C@@H](C)C(=O)N[C@H](C(=O)N[C@@H](CC(C)C)C(N)=O)C(C)C)C(C)C)[C@@H](C)O` (stereo partly drawn) [[D-Phe2]PACAP-27] was 300 nM. As for `CCC(C)[C@H](NC(=O)CNC(=O)[C@H](CC(=O)O)NC(=O)[C@H](Cc1ccccc1)NC(=O)[C@H](Cc1cnc[nH]1)NC(C)=O)C(=O)N[C@@H](Cc1ccccc1)C(=O)N[C@H](C(=O)N[C@@H](CC(=O)O)C(=O)N[C@@H](CO)C(=O)N[C@@H](Cc1ccc(O)cc1)C(=O)N[C@@H](CO)C(=O)N[C@@H](CCCN=C(N)N)C(=O)N[C@@H](Cc1ccc(O)cc1)C(=O)N[C@@H](CCCN=C(N)N)C(=O)N[C@@H](CCCCN)C(=O)N[C@@H](CCC(N)=O)C(=O)N[C@@H](CCSC)C(=O)N[C@@H](C)C(=O)N[C@H](C(=O)N[C@@H](CCCCN)C(=O)N[C@@H](CCCCN)C(=O)N[C@@H](Cc1ccc(O)cc1)C(=O)N[C@@H](CC(C)C)C(=O)N[C@@H](C)C(=O)N[C@@H](C)C(=O)N[C@H](C(=O)N[C@@H](CC(C)C)C(=O)NCC(=O)N[C@@H](CCCCN)C(=O)N[C@@H](CCCN=C(N)N)C(=O)N[C@@H](Cc1ccc(O)cc1)C(=O)N[C@@H](CCCCN)C(=O)N[C@@H](CCC(N)=O)C(=O)N[C@@H](CCCN=C(N)N)C(=O)N[C@H](C(=O)N[C@@H](CCCCN)C(=O)N[C@@H](CC(N)=O)C(=O)N[C@@H](CCCCN)C(N)=O)C(C)C)C(C)C)C(C)C)[C@@H](C)O` (stereo partly drawn) [[AcHis1,Phe2]PACAP(1-38)], the Ki was found to be 10 nM.

For `CC[C@H](C)[C@H](NC(=O)CNC(=O)[C@H](CC(=O)O)NC(=O)[C@@H](Cc1ccccc1)NC(=O)[C@H](Cc1cnc[nH]1)NC(C)=O)C(=O)N[C@@H](Cc1ccccc1)C(=O)N[C@H](C(=O)N[C@@H](CC(=O)O)C(=O)N[C@@H](CO)C(=O)N[C@@H](Cc1ccc(O)cc1)C(=O)N[C@@H](CO)C(=O)N[C@@H](CCCN=C(N)N)C(=O)N[C@@H](Cc1ccc(O)cc1)C(=O)N[C@@H](CCCN=C(N)N)C(=O)N[C@@H](CCCCN)C(=O)N[C@@H](CCC(N)=O)C(=O)N[C@@H](CCSC)C(=O)N[C@@H](C)C(=O)N[C@H](C(=O)N[C@@H](CCCCN)C(=O)N[C@@H](CCCCN)C(=O)N[C@@H](Cc1ccc(O)cc1)C(=O)N[C@@H](CC(C)C)C(=O)N[C@@H](C)C(=O)N[C@@H](C)C(=O)N[C@H](C(=O)N[C@@H](CC(C)C)C(=O)NCC(=O)N[C@@H](CCCCN)C(=O)N[C@@H](CCCN=C(N)N)C(=O)N[C@@H](Cc1ccc(O)cc1)C(=O)N[C@@H](CCCCN)C(=O)N[C@@H](CCC(N)=O)C(=O)N[C@@H](CCCN=C(N)N)C(=O)N[C@H](C(=O)N[C@@H](CCCCN)C(=O)N[C@@H](CC(N)=O)C(=O)N[C@@H](CCCCN)C(N)=O)C(C)C)C(C)C)C(C)C)[C@@H](C)O` [[AcHis1,DPhe2]PACAP(1-38)], the affinity, expressed as Ki, was 10 nM. The value for `CCC(C)[C@H](NC(=O)CNC(=O)[C@H](CC(=O)O)NC(=O)[C@H](Cc1ccccc1)NC(=O)[C@@H](N)Cc1cnc[nH]1)C(=O)N[C@@H](Cc1ccccc1)C(=O)N[C@H](C(=O)N[C@@H](CC(=O)O)C(=O)N[C@@H](CO)C(=O)N[C@@H](Cc1ccc(O)cc1)C(=O)N[C@@H](CO)C(=O)N[C@@H](CCCN=C(N)N)C(=O)N[C@@H](Cc1ccc(O)cc1)C(=O)N[C@@H](CCCN=C(N)N)C(=O)N[C@@H](CCCCN)C(=O)N[C@@H](CCC(N)=O)C(=O)N[C@@H](CCSC)C(=O)N[C@@H](C)C(=O)N[C@H](C(=O)N[C@@H](CCCCN)C(=O)N[C@@H](CCCCN)C(=O)N[C@@H](Cc1ccc(O)cc1)C(=O)N[C@@H](CC(C)C)C(=O)N[C@@H](C)C(=O)N[C@@H](C)C(=O)N[C@H](C(=O)N[C@@H](CC(C)C)C(N)=O)C(C)C)C(C)C)[C@@H](C)O` (stereo partly drawn) [[Phe2]PACAP(1-27)] was 200 nM. The value for `CCC(C)[C@H](NC(=O)CNC(=O)[C@H](CC(=O)O)NC(=O)[C@@H](Cc1ccccc1)NC(=O)[C@@H](N)Cc1cnc[nH]1)C(=O)N[C@@H](Cc1ccccc1)C(=O)N[C@H](C(=O)N[C@@H](CC(=O)O)C(=O)N[C@@H](CO)C(=O)N[C@@H](Cc1ccc(O)cc1)C(=O)N[C@@H](CO)C(=O)N[C@@H](CCCN=C(N)N)C(=O)N[C@@H](Cc1ccc(O)cc1)C(=O)N[C@@H](CCCN=C(N)N)C(=O)N[C@@H](CCCCN)C(=O)N[C@@H](CCC(N)=O)C(=O)N[C@@H](CCSC)C(=O)N[C@@H](C)C(=O)N[C@H](C(=O)N[C@@H](CCCCN)C(=O)N[C@@H](CCCCN)C(=O)N[C@@H](Cc1ccc(O)cc1)C(=O)N[C@@H](CC(C)C)C(=O)N[C@@H](C)C(=O)N[C@@H](C)C(=O)N[C@H](C(=O)N[C@@H](CC(C)C)C(=O)NCC(=O)N[C@@H](CCCCN)C(=O)N[C@@H](CCCN=C(N)N)C(=O)N[C@@H](Cc1ccc(O)cc1)C(=O)N[C@@H](CCCCN)C(=O)N[C@@H](CCC(N)=O)C(=O)N[C@@H](CCCN=C(N)N)C(=O)N[C@H](C(=O)N[C@@H](CCCCN)C(=O)N[C@@H](CC(N)=O)C(=O)N[C@@H](CCCCN)C(N)=O)C(C)C)C(C)C)C(C)C)[C@@H](C)O` (stereo partly drawn) [[D-Phe2]PACAP-38] (H-H[dF]DG[Ile(3ξ)]FTDSYSRYRKQMAVKKYLAAVLGKRYKQRVKNK-NH2) was 10 nM.

In general, Ki refers to a dissociation constant, usually derived from enzyme kinetics or from competition with a known ligand.
